Laboratory results as given in article PMC4505723 (Journal of the American Chemical Society, 2015).

Test system: L. lactis HP cells
Experiment: liquid media growth assays with L. lactis HP cells
Assay type: cell-based
Details: liquid media growth assay (Figure S4)

Substance | IC50 [nM]
lacticin 481 [wt lacticin 481] | 100 ± 25
nukacin ISK-1 | 400 ± 80
